Assay results from patent publication US20250354223A1, “METHODS AND KITS FOR D[…] SUSCEPTIBILITY” (Siemens Healthcare Diagnostics Inc., priority 2022, published 2025).

Tests used:
Format in all cases: cell-based
[1] = system: E. coli; assay: PCR of extracted DNA with 16SrDNA specific primers, with vs without antibiotic (no EMA); conditions: ampicillin-susceptible E. coli, 1×10^6 cells/mL, ampicillin 100 μg/mL, 37° C.
Description: (§1) Overnight E. coli culture that was susceptible to ampicillin was further sub-cultured for 2-3 hours to log phase. Cells in this culture were quantified using OD600nm values. The culture was diluted to 1×10^6 cells/mL and 10 mL was aliquoted into two, 50 ml conical flask. Ampicillin at 100 μg/mL was added to one of the conical flasks. The two flasks, with and without antibiotic were incubated at 37° C. and two, 50 μL aliquots were taken from each flask at regular intervals (0, 30, 40 and 60 mins). Nucleic acid (NA) was extracted from all sample aliquots using the VERSANT® brand Sample preparation 1.0 reagent kit. The NA samples were then subjected to PCR and RT-PCR (reverse transcription-PCR) using 16SrDNA specific primers (each DNA extracted sample was split into two replicates for PCR). […] In this experiment, all RNA samples were treated with DNAse for 60 min at 37° C. before RT-PCR. In a subsequent experiment it was shown that a treatment as low as 5 minutes was also sufficient to eliminate DNA from the sample.
Overnight E. coli culture that was susceptible to ampicillin was further sub-cultured for 2-3 hours to log phase. Cells in this culture was quantified using OD600nm values. The culture was diluted to 1×10^6 cells/mL and 10 mL was aliquoted into two, 50 ml conical flasks. Ampicillin at 100 μg/mL was added to one of the conical flasks. […]

[2] = system: E. coli; assay: EMA (ethidium monoazide) + blue light treatment followed by PCR with 16SrDNA specific primers, with vs without antibiotic
Description: FIG. 3 illustrates a method of determining antibiotic susceptibility of micro-organisms, according to yet another embodiment. At step 301, the sample comprising the micro-organism is received. At step 302, at least one first portion of the sample is incubated with an antibiotic and at least one second portion of the sample is incubated with no antibiotic. The micro-organisms in the sample are required to be grown/cultured or incubated for the shortest possible time in which discernible nucleic acid differences can be measured. For example, the micro-organisms are cultured or incubated for a range of at least one to five doubling cycles. Antibiotics which are cell wall synthesis inhibitors (beta lactam) and cell membrane inhibitors (colistin) affect the integrity of cell wall of the micro-organisms. This facilitates determination of antibiotic susceptibility. Once the doubling cycle range is met for the at least one first and second portion of the sample, at step 303, an intercalating dye is introduced to the at least one first portion of the sample and the at least one second portion of the sample. […]
Overnight E. coli culture that was susceptible to ampicillin was further sub-cultured for 2-3 hours to log phase. Cells in this culture was quantified using OD600nm values. […]

[3] = system: E. coli; assay: RT-PCR of extracted RNA with 16SrDNA specific primers, with vs without antibiotic; conditions: ampicillin-susceptible E. coli, 1×10^6 cells/mL, ampicillin 100 μg/mL, 37° C., 60 minutes; FIG. 10 table 1
Description: as §1

SMILES: CC1(C)S[C@@H]2[C@H](NC(=O)[C@H](N)c3ccccc3)C(=O)N2[C@H]1C(=O)O [ampicillin]
- distinction of antibiotic and no antibiotic samples by DNA levels ([1]; 60 min incubation, FIG. 10 table 2): did not distinguish antibiotic and no antibiotic samples
- difference in Ct between ampicillin exposed and unexposed, samples not exposed to EMA+blue light ([1]; up to 30 mins, no EMA, FIG. 14 table 2): did not show any difference
- effect of including EMA on the difference in cycle threshold values between first (ampicillin) and second (no ampicillin) portion ([2]; FIG. 4, graph 402 (ampicillin and EMA) vs graph 401 (ampicillin only)): improves the difference in the cycle threshold values
- difference in Ct between ampicillin exposed and unexposed, samples exposed to EMA ([2]; ampicillin-susceptible E. coli, 1×10^6 cells/mL, ampicillin 100 μg/mL, 37° C., within 30 minutes, EMA + blue LED light, FIG. 14 table 1): large difference in Ct
- detection of ampicillin susceptibility by RNA levels [3]: able to detect for ampicillin susceptibility at 60 minutes
